Each structure is given as a SMILES string.

This assay deals with T1, human IRAK4 (Homo sapiens, UniProt Q9NWZ3).
T1 construct: GST (N); made in house; host or cells: baculovirus-infected Hi5 (BTI-TN-5B1-4) insect cells
T1 sequence (Q9NWZ3 1-460): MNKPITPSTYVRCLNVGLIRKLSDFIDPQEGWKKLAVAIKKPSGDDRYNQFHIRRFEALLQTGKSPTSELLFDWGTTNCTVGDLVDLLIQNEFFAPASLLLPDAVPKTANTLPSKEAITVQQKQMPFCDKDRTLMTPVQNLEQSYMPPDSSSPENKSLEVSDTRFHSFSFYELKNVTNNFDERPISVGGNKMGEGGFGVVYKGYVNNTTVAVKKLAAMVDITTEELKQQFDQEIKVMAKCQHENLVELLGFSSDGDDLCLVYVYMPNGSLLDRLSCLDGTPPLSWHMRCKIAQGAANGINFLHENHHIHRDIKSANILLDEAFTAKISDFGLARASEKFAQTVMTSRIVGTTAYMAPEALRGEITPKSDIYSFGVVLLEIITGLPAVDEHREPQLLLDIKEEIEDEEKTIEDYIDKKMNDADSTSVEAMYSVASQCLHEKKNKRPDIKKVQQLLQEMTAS
Description: Human IRAK4 kinase activity inhibition assay (IRAK4 TR-FRET assay). Format: biochemical. Particulars: 1 mM ATP, GST-human IRAK4, average or median values. A digest of the protocol: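 Signal was the 665/620 nm emission ratio from a europium anti-mouse-IgG, anti-phosphoserine antibody and streptavidin-XL665 complex formed over 1 h at 22°C. It was scaled between no-enzyme (100%) and no-compound (0%) wells. Beforehand, compounds (20 µM down to 0.073 nM, 11 points) sat 15 min with roughly 0.2 nM insect-cell-expressed GST-human IRAK4 before phosphorylation of a biotinylated peptide substrate.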
For orientation: TR-FRET usually uses a lanthanide donor and a delayed reading to cut background.
One may read the IC50 as the concentration needed to halve the response being measured. A low value points to higher potency. Regarding `O[C@H]1CN(c2nc(N[C@H]3C[C@@H](O)C3)nc3c2cnn3-c2cccc(C(F)(F)F)c2)C[C@@H]1F` [Example I-97, (3S,4S)-4-fluoro-1-(6-{[(1s,3R)-3-hydroxycyclobutyl]amino}-1-[3-(trifluoromethyl)-phenyl]-1H-pyrazolo[3,4-d]pyrimidin-4-yl)pyrrolidin-3-ol], the concentration for half-maximal inhibition (IC50) came out at 8.16 nM.
To `CS(=O)(=O)[C@H]1C[C@H](Nc2nc(N3CC(F)C3)c3cnn(-c4cccc(C(F)(F)F)c4)c3n2)C1` [Example I-99, 4-(3-fluoroazetidin-1-yl)-N-[trans-3-(methylsulfonyl)cyclobutyl]-1-[3-(trifluoromethyl)-phenyl]-1H-pyrazolo[3,4-d]pyrimidin-6-amine] belongs 16.2 nM.
To `OC1CCN(c2nc(N[C@H]3C[C@H](O)C3)nc3c2cnn3-c2cccc(C(F)(F)F)c2)CC1` [Example I-100] belongs 49.9 nM; to `C[C@@]1(O)CCN(c2nc(N[C@H]3C[C@H](O)C3)nc3c2cnn3-c2cccc(C(F)(F)F)c2)C1` [Example I-102, (3R)-1-(6-{[(1r,3R)-3-hydroxycyclobutyl]amino}-1-[3-(trifluoromethyl)phenyl]-1H-pyrazolo[3,4-d]pyrimidin-4-yl)-3-methylpyrrolidin-3-ol], 49.9 nM.
In turn, `C[C@@]1(O)CCN(c2nc(N[C@H]3C[C@H](S(C)(=O)=O)C3)nc3c2cnn3-c2cccc(C(F)(F)F)c2)C1` [Example I-103, (3R)-3-methyl-1-(6-{[(1r,3R)-3-(methylsulfonyl)cyclobutyl]amino}-1-[3-(trifluoromethyl)-phenyl]-1H-pyrazolo[3,4-d]pyrimidin-4-yl)pyrrolidin-3-ol] had an IC50 of 11.4 nM.
To `CC1(O)CCN(C2CN(c3nc(N[C@H]4C[C@](C)(O)C4)nc4c3cnn4-c3cccc(C(F)(F)F)c3)C2)CC1` [Example I-110, 1-(1-{6-[(trans-3-hydroxy-3-methylcyclobutyl)amino]-1-[3-(trifluoromethyl)phenyl]-1H-pyrazolo[3,4-d]pyrimidin-4-yl}azetidin-3-yl)-4-methylpiperidin-4-ol] belongs 11.8 nM; to `CC(C)(O)C1CN(c2nc(N[C@H]3C[C@@H](O)C3)nc3c2cnn3-c2cccc(C(F)(F)F)c2)C1` [Example I-116, cis-3-({4-[3-(2-hydroxypropan-2-yl)azetidin-1-yl]-1-[3-(trifluoromethyl)phenyl]-1H-pyrazolo[3,4-d]pyrimidin-6-yl}amino)cyclobutanol], 16.8 nM.
To `O[C@@H]1CCN(c2nc(N[C@H]3C[C@@H](O)C3)nc3c2cnn3-c2cccc(C(F)(F)F)c2)C1` [Example I-117, (3R)-1-(6-{[(1s,3S)-3-hydroxycyclobutyl]amino}-1-[3-(trifluoromethyl)phenyl]-1H-pyrazolo[3,4-d]pyrimidin-4-yl)pyrrolidin-3-ol] belongs 23.4 nM.
To `O[C@H]1C[C@@H](Nc2nc(N3CC(N4CCC(F)(F)C4)C3)c3cnn(-c4cccc(C(F)(F)F)c4)c3n2)C1` [Example I-118, cis-3-({4-[3-(3,3-difluoropyrrolidin-1-yl)azetidin-1-yl]-1-[3-(trifluoromethyl)phenyl]-1H-pyrazolo[3,4-d]pyrimidin-6-yl}amino)cyclobutanol] belongs 5.13 nM; to `O[C@H]1C[C@H](Nc2nc(N3CC(N4CC(F)C4)C3)c3cnn(-c4cccc(C(F)(F)F)c4)c3n2)C1` [Example I-119, trans-3-({4-(3-fluoro[1,3'-biazetidin]-1'-yl)-1-[3-(trifluoromethyl)phenyl]-1H-pyrazolo[3,4-d]pyrimidin-6-yl}amino)cyclobutanol], 16.5 nM.
In the case of `C[C@]1(O)C[C@H](Nc2nc(N3CC(N4CC(F)C4)C3)c3cnn(-c4cccc(C(F)(F)F)c4)c3n2)C1` [Example I-120, trans-3-({4-(3-fluoro[1,3'-biazetidin]-1'-yl)-1-[3-(trifluoromethyl)phenyl]-1H-pyrazolo[3,4-d]pyrimidin-6-yl}amino)-1-methylcyclobutanol], it took 16.6 nM to reach half-maximal inhibition (IC50).
To `O=C1COCCN1C1CN(c2nc(N[C@H]3C[C@@H](O)C3)nc3c2cnn3-c2cccc(C(F)(F)F)c2)C1` [Example I-121, 4-(1-{6-[(cis-3-hydroxycyclobutyl)amino]-1-[3-(trifluoromethyl)phenyl]-1H-pyrazolo[3,4-d]pyrimidin-4-yl}azetidin-3-yl)morpholin-3-one] belongs 3.65 nM.
The molecule `C[C@]1(O)C[C@H](Nc2nc(N3CC(N4CCOCC4=O)C3)c3cnn(-c4cccc(C(F)(F)F)c4)c3n2)C1` [Example I-122, 4-(1-{6-[(trans-3-hydroxy-3-methylcyclobutyl)amino]-1-[3-(trifluoromethyl)phenyl]-1H-pyrazolo[3,4-d]pyrimidin-4-yl}azetidin-3-yl)morpholin-3-one] displayed a 50% inhibitory concentration (IC50) of 2.75 nM.
To `CC1(N2CCOCC2)CN(c2nc(N[C@H]3C[C@](C)(O)C3)nc3c2cnn3-c2cccc(C(F)(F)F)c2)C1` [Example I-123, trans-1-methyl-3-({4-[3-methyl-3-(morpholin-4-yl)azetidin-1-yl]-1-[3-(trifluoromethyl)-phenyl]-1H-pyrazolo[3,4-d]pyrimidin-6-yl}amino)cyclobutanol] belongs 7.98 nM.
As for `C[C@]1(O)CCN(c2nc(N[C@H]3C[C@@H](O)C3)nc3c2cnn3-c2cccc(C(F)(F)F)c2)C1` [Example I-124, (3S)-1-(6-{[(1s,3R)-3-hydroxycyclobutyl]amino}-1-[3-(trifluoromethyl)phenyl]-1H-pyrazolo[3,4-d]pyrimidin-4-yl)-3-methylpyrrolidin-3-ol], the figure is 22.5 nM; as for `CCC1(O)CN(c2nc(N[C@H]3CCN(C)C3)nc3c2cnn3-c2cccc(S(C)(=O)=O)c2)C1` [Example V-1, 3-ethyl-1-(6-{[(3S)-1-methylpyrrolidin-3-yl]amino}-1-[3-(methylsulfonyl)phenyl]-1H-pyrazolo[3,4-d]pyrimidin-4-yl)azetidin-3-ol], 170 nM.
To `CCC1(O)CN(c2nc(N[C@@H]3CCOC3)nc3c2cnn3-c2cccc(S(C)(=O)=O)c2)C1` [Example V-2, 3-ethyl-1-{1-[3-(methylsulfonyl)phenyl]-6-[(3R)-tetrahydrofuran-3-ylamino]-1H-pyrazolo[3,4-d]pyrimidin-4-yl}azetidin-3-ol] belongs 179 nM.
Molecule `O=S1(=O)CC[C@H](Nc2nc(N3CC(N4CCOCC4)C3)c3cnn(-c4cccc(C(F)F)c4)c3n2)C1` [II-3, 1-[3-(difluoromethyl)phenyl]-N-[(3S)-1,1-dioxidotetrahydrothiophen-3-yl]-4-[3-(morpholin-4-yl)azetidin-1-yl]-1H-pyrazolo[3,4-d]pyrimidin-6-amine] yielded an IC50 of 24.8 nM.
To `O=C(O)CC1CN(c2nc(NC3CCS(=O)(=O)CC3)nc3c2cnn3-c2cccc(C(F)F)c2)C1` [II-9, (1-{1-[3-(difluoromethyl)phenyl]-6-[(1,1-dioxidotetrahydro-2H-thiopyran-4-yl)amino]-1H-pyrazolo[3,4-d]pyrimidin-4-yl}azetidin-3-yl)acetic acid] belongs 84.9 nM; to `CS(=O)(=O)N1CC(Nc2nc(N3CC(N4CCOCC4)C3)c3cnn(-c4cccc(C(F)F)c4)c3n2)C1` [II-13, 1-[3-(difluoromethyl)phenyl]-N-[1-(methylsulfonyl)azetidin-3-yl]-4-[3-(morpholin-4-yl)azetidin-1-yl]-1H-pyrazolo[3,4-d]pyrimidin-6-amine], 13.3 nM; to `O=S1(=O)CCC(Nc2nc(N3CCC(O)(C(F)(F)F)C3)c3cnn(-c4cccc(C(F)F)c4)c3n2)CC1` (stereo not shown) [II-15, 1-{1-[3-(difluoromethyl)phenyl]-6-[(1,1-dioxidotetrahydro-2H-thiopyran-4-yl)amino]-1H-pyrazolo[3,4-d]pyrimidin-4-yl}-3-(trifluoromethyl)pyrrolidin-3-ol], 45.2 nM.
To `CS(=O)(=O)N1CC(Nc2nc(N3C[C@H](O)[C@@H](F)C3)c3cnn(-c4cccc(C(F)F)c4)c3n2)C1` [II-22, (3S,4S)-1-(1-[3-(difluoromethyl)phenyl]-6-{[1-(methylsulfonyl)azetidin-3-yl]amino}-1H-pyrazolo[3,4-d]pyrimidin-4-yl)-4-fluoropyrrolidin-3-ol] belongs 45.3 nM; to `CS(=O)(=O)N1CC(Nc2nc(N3C[C@@H](O)[C@H](F)C3)c3cnn(-c4cccc(C(F)F)c4)c3n2)C1` [II-23, (3R,4R)-1-(1-[3-(difluoromethyl)phenyl]-6-{[1-(methylsulfonyl)azetidin-3-yl]amino}-1H-pyrazolo[3,4-d]pyrimidin-4-yl)-4-fluoropyrrolidin-3-ol], 16.2 nM.
As for `O[C@H]1C[C@H](Nc2nc(N3CC(N4CCOCC4)C3)c3cnn(-c4cccc(C(F)F)c4)c3n2)C1` [II-25, trans-3-({1-[3-(difluoromethyl)phenyl]-4-[3-(morpholin-4-yl)azetidin-1-yl]-1H-pyrazolo-[3,4-d]pyrimidin-6-yl}amino)cyclobutanol], the figure is 6.15 nM.
`CC(C)(C(=O)O)C1CN(c2nc(NC3CCS(=O)(=O)CC3)nc3c2cnn3-c2cccc(C(F)F)c2)C1` [II-26, 2-(1-{1-[3-(difluoromethyl)phenyl]-6-[(1,1-dioxidotetrahydro-2H-thiopyran-4-yl)amino]-1H-pyrazolo[3,4-d]pyrimidin-4-yl}azetidin-3-yl)-2-methylpropanoic acid] registered an IC50 of 73.6 nM.
